Reference: patent US8884023B2, “Pyrano [3,2-D][1,3]thiazole as glycosidase inhibitors” (priority 2011, dated 2014)
Where two headings read alike, the source gives them in different places.

Experiments:
O-GlcNAcase = biological target: T1, O-GlcNAcase (UniProt Q8VIJ5); type: cell-based; details: cells expressing endogenous O-GlcNAcase (such as rat B35, rat PC-12, human SH-SY5Y), approximately 16 hours treatment; read-out: OGA cellular inhibition (EC50)
T1 sequence (Q8VIJ5 1-916): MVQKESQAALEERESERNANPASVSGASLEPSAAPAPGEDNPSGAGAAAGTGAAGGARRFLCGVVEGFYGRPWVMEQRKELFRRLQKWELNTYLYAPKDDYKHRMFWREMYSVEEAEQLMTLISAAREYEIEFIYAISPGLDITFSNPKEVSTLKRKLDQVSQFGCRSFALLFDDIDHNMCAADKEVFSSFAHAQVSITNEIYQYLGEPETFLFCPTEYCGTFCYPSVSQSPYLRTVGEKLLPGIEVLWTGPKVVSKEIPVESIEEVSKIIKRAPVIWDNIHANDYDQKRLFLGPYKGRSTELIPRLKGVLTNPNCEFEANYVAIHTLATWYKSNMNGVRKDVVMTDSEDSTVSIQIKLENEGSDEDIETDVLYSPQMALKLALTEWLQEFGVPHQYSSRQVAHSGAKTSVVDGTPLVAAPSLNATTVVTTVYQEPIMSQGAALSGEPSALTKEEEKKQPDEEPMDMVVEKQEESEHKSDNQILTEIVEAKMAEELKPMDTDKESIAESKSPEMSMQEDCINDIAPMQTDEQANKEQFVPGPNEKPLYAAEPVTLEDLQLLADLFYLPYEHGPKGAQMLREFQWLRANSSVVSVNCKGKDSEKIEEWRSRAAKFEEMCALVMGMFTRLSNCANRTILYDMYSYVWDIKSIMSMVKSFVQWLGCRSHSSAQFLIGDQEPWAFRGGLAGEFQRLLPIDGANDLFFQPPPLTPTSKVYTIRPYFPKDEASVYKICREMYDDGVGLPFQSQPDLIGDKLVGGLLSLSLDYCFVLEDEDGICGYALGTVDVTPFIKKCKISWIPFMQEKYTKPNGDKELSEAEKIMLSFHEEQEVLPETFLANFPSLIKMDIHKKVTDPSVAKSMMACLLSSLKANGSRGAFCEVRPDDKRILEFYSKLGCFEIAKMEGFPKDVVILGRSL
Excerpt: Assay for the Determination of Cellular Activity for Compounds that Inhibit O-GlcNAcase Activity
Inhibition of O-GlcNAcase, which removes O-GlcNAc from cellular proteins, results in an increase in the level of O-GlcNAcylated proteins in cells. An increase in the O-GlcNAcylation of cellular proteins can be measured by an antibody, such as CTD110.6, that binds O-GlcNAcylated proteins. The amount of O-GlcNAcylated protein can be determined by the enzyme linked immunoabsorbant assay (ELISA) technique.
Cell lines, such as rat B35, rat PC-12 and human SH-SY5Y cells, expressing endogenous levels of O-GlcNAcase, could be utilized. Cells were plated in 96-well plates at a density of approximately 10,000 cells/well. Compounds to be tested were dissolved in DMSO as 10 mM stock solution, and then diluted first with DMSO and then culture media using the Bravo workstation. Cells were treated with diluted compounds for approximately 16 hours. […] To prepare a cell lysate, the media from compound treated cells were removed, and the cells were washed once with Dulbecco's phosphate buffered saline (DPBS) and then lysed for 30 minutes in 100 μl/well of ice cold RIPA buffer containing a protease inhibitor cocktail.
The ELISA portion of the assay was performed in EIA/RIA plates that were coated overnight at 4 C with 80 μl/well of cell lysate. The following day the wells were washed 6 times with 200 μl of wash buffer (0.05% Tween20 in DPBS). The wells were blocked with 200 μl blocking buffer (1% BSA, 0.05% Tween20 in DPBS) for 1 h at room temperature. Each well was then washed 6 times with 200 μl of wash buffer. The anti-O-GlcNAc antibody CTD110.6 (Covance, Princeton, N.J.) was added at 100 μl/well at a concentration of 10 μg/ml. The plates were incubated for 1 h at room temperature. The wells were then washed 6 times with 200 μl/well of wash buffer. To detect the amount of CTD110.6 bound to the cell lysate, alkaline phosphatase conjugated goat anti-mouse IgM (diluted 1:500 in blocking buffer) was added at 100 μl/well and incubated for 45 min at room temperature. Each well was then washed 6 times with 200 μl/well of wash buffer. PNPP tablets dissolved in diethanolamine substrate buffer and 100 μl/well were added as detection reagent.
The amount of O-GlcNAcylated protein, as detected by the ELISA assay, was plotted for each concentration of test compound using standard curve fitting algorithms for sigmoidal dose response curves. The values for a four parameter logistic curve fit of the data were determined, with the inflection point of the curve being the potency value for the test compound.

[1] = biological target: T2, His-Tagged hOGA (human O-GlcNAcase) (Homo sapiens, UniProt O60502); assay: biochemical
T2 sequence (O60502 1-916): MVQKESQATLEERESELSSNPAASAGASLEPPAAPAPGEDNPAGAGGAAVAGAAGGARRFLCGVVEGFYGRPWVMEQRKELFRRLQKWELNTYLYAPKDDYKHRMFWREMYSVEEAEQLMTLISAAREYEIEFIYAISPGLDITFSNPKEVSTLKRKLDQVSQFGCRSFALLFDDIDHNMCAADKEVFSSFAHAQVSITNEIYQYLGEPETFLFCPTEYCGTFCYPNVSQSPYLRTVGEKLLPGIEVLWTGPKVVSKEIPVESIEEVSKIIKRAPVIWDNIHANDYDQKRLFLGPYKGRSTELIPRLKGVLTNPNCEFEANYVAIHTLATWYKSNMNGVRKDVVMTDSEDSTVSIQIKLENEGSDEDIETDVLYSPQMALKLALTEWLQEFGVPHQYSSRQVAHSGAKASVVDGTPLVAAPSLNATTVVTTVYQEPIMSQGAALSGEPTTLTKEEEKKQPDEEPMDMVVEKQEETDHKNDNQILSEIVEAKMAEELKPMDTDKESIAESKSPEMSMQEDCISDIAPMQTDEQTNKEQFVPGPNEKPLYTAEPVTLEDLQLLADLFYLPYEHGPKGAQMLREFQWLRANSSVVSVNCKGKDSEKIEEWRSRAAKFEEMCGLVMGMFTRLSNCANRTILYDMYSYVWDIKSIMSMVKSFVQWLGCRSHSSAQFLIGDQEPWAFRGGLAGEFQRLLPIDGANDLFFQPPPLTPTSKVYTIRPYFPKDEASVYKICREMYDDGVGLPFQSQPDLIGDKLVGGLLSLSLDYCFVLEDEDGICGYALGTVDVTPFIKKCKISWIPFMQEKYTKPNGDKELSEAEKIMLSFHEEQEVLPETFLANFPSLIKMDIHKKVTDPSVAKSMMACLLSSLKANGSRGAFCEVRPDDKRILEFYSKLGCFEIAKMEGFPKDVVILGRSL

[2] = read-out: OGA enzyme inhibition (IC50)

EC50 (O-GlcNAcase) [nM] | IC50 [1, 2] [nM] | SMILES | IC50 [1] [nM]
100 to 500 | < 100 | CCNC1=N[C@@H]2[C@@H](O)[C@H](O)[C@@H](Cn3cc(COc4cccc(F)c4)nn3)O[C@@H]2S1 [compound 79] | –
> 1000 | 100 to 500 | CCNC1=N[C@@H]2[C@@H](O)[C@H](O)[C@@H](Cn3cc(-c4ccccc4)nn3)O[C@@H]2S1 [compound no. 2, (3aR,5R,6S,7R,7aR)-2-(ethylamino)-5-[(4-phenyl-1H-1,2,3-triazol-1-yl)methyl]-5,6,7,7a-tetrahydro-3aH-pyrano[3,2-d][1,3]thiazole-6,7-diol] | –
100 to 500 | < 100 | CCNC1=N[C@@H]2[C@@H](O)[C@H](O)[C@@H](Cn3cc(COc4cccc(C)c4)nn3)O[C@@H]2S1 [compound 77] | –
> 1000 | 100 to 500 | CCNC1=N[C@@H]2[C@@H](O)[C@H](O)[C@@H](Cn3cc(COc4ccc(C)cc4)nn3)O[C@@H]2S1 [compound 91] | –
100 to 500 | < 100 | CCNC1=N[C@@H]2[C@@H](O)[C@H](O)[C@@H](Cn3cc(COc4ccccc4F)nn3)O[C@@H]2S1 [compound 89] | –
100 to 500 | < 100 | CCNC1=N[C@@H]2[C@@H](O)[C@H](O)[C@@H](Cn3cc(COc4cccc(Br)c4)nn3)O[C@@H]2S1 [compound 72] | –
500 to 1000 | < 100 | CCNC1=N[C@@H]2[C@@H](O)[C@H](O)[C@@H](Cn3cc(COc4ccccc4C)nn3)O[C@@H]2S1 [compound 87] | –
> 1000 | < 100 | CCNC1=N[C@@H]2[C@@H](O)[C@H](O)[C@@H](Cn3cc(Cn4cccc4)nn3)O[C@@H]2S1 [compound 66] | –
500 to 1000 | < 100 | CCNC1=N[C@@H]2[C@@H](O)[C@H](O)[C@@H](Cn3cc(COc4ccccc4)nn3)O[C@@H]2S1 [compound no. 58, (3aR,5R,6S,7R,7aR)-2-(ethylamino)-5-{[4-(phenoxymethyl)-1H-1,2,3-triazol-1-yl]methyl}-5,6,7,7a-tetrahydro-3aH-pyrano[3,2-d][1,3]thiazole-6,7-diol] | –

Second part, the compound before the results:

SMILES | EC50 (O-GlcNAcase) [nM] | IC50 [1, 2] [nM] | IC50 [1] [nM]
CCNC1=N[C@@H]2[C@@H](OS(C)(=O)=O)[C@H](O)[C@@H](CO)O[C@@H]2S1 [compound no. 46, (3aR,5R,6R,7R,7aR)-2-(ethylamino)-6-hydroxy-5-(hydroxymethyl)-5,6,7,7a-tetrahydro-3aH-pyrano[3,2-d][1,3]thiazol-7-yl methanesulfonate] | 100 to 500 | 100 to 500 | –
CCNC1=N[C@@H]2[C@@H](O)[C@H](O)[C@@H](Cn3cc(COc4ccc(Cl)cc4)nn3)O[C@@H]2S1 [compound 92] | 100 to 500 | < 100 | –
CCNC1=N[C@@H]2[C@@H](O)[C@H](O)[C@@H](COC(=O)OC(C)(C)C)O[C@@H]2S1 [compound no. 3, tert-butyl [(3aR,5R,6S,7R,7aR)-2-(ethylamino)-6,7-dihydroxy-5,6,7,7a-tetrahydro-3aH-pyrano[3,2-d][1,3]thiazol-5-yl]methyl carbonate] | < 100 | 100 to 500 | –
CCNC1=N[C@@H]2[C@@H](O)[C@H](O)[C@@H](CBr)O[C@@H]2S1 [compound no. 5, (3aR,5S,6S,7R,7aR)-5-(bromomethyl)-2-(ethylamino)-5,6,7,7a-tetrahydro-3aH-pyrano[3,2-d][1,3]thiazole-6,7-diol] | 100 to 500 | < 100 | –
CCNC1=N[C@@H]2[C@@H](O)[C@H](O)[C@@H](Cn3cc(COc4ccccc4Cl)nn3)O[C@@H]2S1 [compound 86] | < 100 | – | < 100
CCNC1=N[C@@H]2[C@@H](O)[C@H](O)[C@@H](Cn3cc(COc4ccccc4OC)nn3)O[C@@H]2S1 [compound 88] | > 1000 | – | < 100
CCNC1=N[C@@H]2[C@@H](O)[C@H](O)[C@@H](Cn3cc(COc4ccccc4O)nn3)O[C@@H]2S1 [compound 84] | > 1000 | – | 100 to 500
CCNC1=N[C@@H]2[C@@H](O)[C@H](O)[C@@H](Cn3cc(COc4cccc(OC)c4)nn3)O[C@@H]2S1 [compound 80] | 100 to 500 | – | < 100
CCNC1=N[C@@H]2[C@@H](O)[C@H](O)[C@@H](Cn3cc(Cc4ccccc4)nn3)O[C@@H]2S1 [compound no. 14, (3aR,5R,6S,7R,7aR)-5-[(4-benzyl-1H-1,2,3-triazol-1-yl)methyl]-2-(ethylamino)-5,6,7,7a-tetrahydro-3aH-pyrano[3,2-d][1,3]thiazole-6,7-diol] | 100 to 500 | – | < 100
CCNC1=N[C@@H]2[C@@H](O)[C@H](O)[C@@H](Cn3cc(COc4ccc(C(C)(C)C)cc4)nn3)O[C@@H]2S1 [compound 94] | 100 to 500 | – | 100 to 500
